Measured values from patent US20240043439A1, “COMPOUNDS AS C5AR INHIBITORS” (Kira Pharmaceuticals (Suzhou) Ltd., priority 2020, published 2024).

Assays:
C5aR = C5aR (Homo sapiens (Human), UniProt P21730); test: Calcium mobilization (U937/C5aR or HEK293/C5aR cells, FLIPR); format: cell-based; conditions: agonist human C5a at EC80, FLIPR
How it was run: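 U937 or HEK293 cells expressing human C5aR, plated overnight, then preincubated 60 min with compound. After Fluo-4 Direct dye loading (50 min at 37 °C, 10 min at room temperature), intracellular calcium rise on FLIPR was triggered by human C5a agonist at EC80.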

[1] = biological target: human C5a receptor (C5aR) (Homo sapiens (Human), UniProt P21730); test: Inhibition of C5a-C5aR binding (biotinylated human C5a, U937/C5aR cells, FACS)
How it was run: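 U937 cells stably expressing human C5aR, 3×10^6 cells/ml in PBS+0.1% BSA, were co-incubated with compound and biotinylated human C5a (30 nM, working solution) on ice for 120 min. Bound ligand was stained with FITC-streptavidin for 30 min on ice and read by flow cytometry.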

Sequence of human C5a receptor (C5aR) (P21730 whole entry): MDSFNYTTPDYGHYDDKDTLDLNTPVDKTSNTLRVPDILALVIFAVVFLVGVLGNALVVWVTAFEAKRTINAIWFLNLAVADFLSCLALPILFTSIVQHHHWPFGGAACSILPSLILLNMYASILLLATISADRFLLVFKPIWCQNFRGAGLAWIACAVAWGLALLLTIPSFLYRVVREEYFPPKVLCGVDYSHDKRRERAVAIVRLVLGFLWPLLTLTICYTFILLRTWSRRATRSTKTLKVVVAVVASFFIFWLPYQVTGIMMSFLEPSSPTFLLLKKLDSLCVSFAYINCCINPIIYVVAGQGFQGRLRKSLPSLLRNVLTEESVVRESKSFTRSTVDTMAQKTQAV
Sequence of C5aR (P21730 whole entry): as above

SMILES: Cc1ccc(NC(=O)[C@H]2CCCN(S(=O)(=O)c3cc(F)ccc3C)[C@H]2c2ccc(NC3CCCC3)cc2)cc1C(F)(F)F [Compound 17, (2R,3S)-2-(4-(cyclopentylamino)phenyl)-1-((5-fluoro-2-methylphenyl)sulfonyl)-N-(4-methyl-3-(trifluoromethyl)phenyl)piperidine-3-carboxamide]
- IC50 (C5aR): 2000 to 10000 nM
- IC50 [1]: 500 to 2000 nM

SMILES: Cc1ccc(NC(=O)[C@H]2CCCN(S(=O)(=O)c3cccc(F)c3C)[C@H]2c2ccc(NC3CCCC3)cc2)cc1C(F)(F)F [Compound 18, (2R,3S)-1-((3-fluoro-2-methylphenyl)sulfonyl)-2-(4-(cyclopentylamino)phenyl)-N-(4-methyl-3-(trifluoromethyl)phenyl)piperidine-3-carboxamide]
- IC50 (C5aR): > 10000 nM
- IC50 [1]: 2000 to 5000 nM

SMILES: Cc1ccc(NC(=O)[C@H]2CCCN(S(=O)(=O)c3c(F)cccc3F)[C@H]2c2ccc(NC3CCCC3)cc2)cc1C(F)(F)F [Compound 19, (2R,3S)-2-(4-(cyclopentylamino)phenyl)-1-((2,6-difluorophenyl)sulfonyl)-N-(4-methyl-3-(trifluoromethyl)phenyl)piperidine-3-carboxamide]
- IC50 (C5aR): 2000 to 10000 nM
- IC50 [1]: 2000 to 5000 nM

SMILES: Cc1ccc(NC(=O)[C@H]2CCCN(S(=O)(=O)c3c(Cl)cccc3Cl)[C@H]2c2ccc(NC3CCCC3)cc2)cc1C(F)(F)F [Compound 20, (2R,3S)-2-(4-(cyclopentylamino)phenyl)-1-((2,6-dichlorophenyl)sulfonyl)-N-(4-methyl-3-(trifluoromethyl)phenyl)piperidine-3-carboxamide]
- IC50 (C5aR): > 10000 nM
- IC50 [1]: 2000 to 5000 nM

SMILES: Cc1ccc(NC(=O)[C@H]2CCCN(S(=O)(=O)c3ccccc3C)[C@H]2c2ccc(NC3CCCC3)cc2)cc1C(F)(F)F [Compound 22, (2R,3S)-2-(4-(cyclopentylamino)phenyl)-N-(4-methyl-3-(trifluoromethyl)phenyl)-1-(o-tolylsulfonyl)piperidine-3-carboxamide]
- IC50 (C5aR): > 10000 nM
- IC50 [1]: 500 to 2000 nM

SMILES: COc1ccccc1S(=O)(=O)N1CCC[C@H](C(=O)Nc2ccc(C)c(C(F)(F)F)c2)[C@@H]1c1ccc(NC2CCCC2)cc1 [Compound 23, (2R,3S)-2-(4-(cyclopentylamino)phenyl)-1-((2-methoxyphenyl)sulfonyl)-N-(4-methyl-3-(trifluoromethyl)phenyl)piperidine-3-carboxamide]
- IC50 (C5aR): 2000 to 10000 nM
- IC50 [1]: 2000 to 5000 nM

SMILES: Cc1ccc(NC(=O)[C@H]2CCCN(S(=O)(=O)c3ccccc3OC(F)(F)F)[C@H]2c2ccc(NC3CCCC3)cc2)cc1C(F)(F)F [Compound 24, (2R,3S)-2-(4-(cyclopentylamino)phenyl)-N-(4-methyl-3-(trifluoromethyl)phenyl)-1-((2-(trifluoromethoxy)phenyl)sulfonyl)piperidine-3-carboxamide]
- IC50 (C5aR): > 10000 nM
- IC50 [1]: 2000 to 5000 nM

SMILES: Cc1ccc(NC(=O)[C@H]2CCCN(S(=O)(=O)c3ccccc3F)[C@H]2c2ccc(NC3CCCC3)cc2)cc1C(F)(F)F [Compound 25, (2R,3S)-2-(4-(cyclopentylamino)phenyl)-1-((2-fluorophenyl)sulfonyl)-N-(4-methyl-3-(trifluoromethyl)phenyl)piperidine-3-carboxamide]
- IC50 (C5aR): > 10000 nM
- IC50 [1]: 500 to 2000 nM

SMILES: Cc1ccc(NC(=O)[C@H]2CCCN(S(=O)(=O)c3ccccc3Cl)[C@H]2c2ccc(NC3CCCC3)cc2)cc1C(F)(F)F [Compound 26, (2R,3S)-1-((2-chlorophenyl)sulfonyl)-2-(4-(cyclopentylamino)phenyl)-N-(4-methyl-3-(trifluoromethyl)phenyl)piperidine-3-carboxamide]
- IC50 (C5aR): > 10000 nM
- IC50 [1]: 2000 to 5000 nM

SMILES: Cc1ccc(NC(=O)[C@H]2CCCN(S(=O)(=O)c3ccccc3Br)[C@H]2c2ccc(NC3CCCC3)cc2)cc1C(F)(F)F [Compound 27, (2R,3S)-1-((2-bromophenyl)sulfonyl)-2-(4-(cyclopentylamino)phenyl)-N-(4-methyl-3-(trifluoromethyl)phenyl)piperidine-3-carboxamide]
- IC50 (C5aR): 2000 to 10000 nM
- IC50 [1]: 2000 to 5000 nM

SMILES: Cc1ccc(NC(=O)[C@H]2CCCN(S(=O)(=O)c3ccccc3C(F)(F)F)[C@H]2c2ccc(NC3CCCC3)cc2)cc1C(F)(F)F [Compound 28, (2R,3S)-2-(4-(cyclopentylamino)phenyl)-N-(4-methyl-3-(trifluoromethyl)phenyl)-1-((2-(trifluoromethyl)phenyl)sulfonyl)piperidine-3-carboxamide]
- IC50 (C5aR): 2000 to 10000 nM
- IC50 [1]: 2000 to 5000 nM

SMILES: Cc1ccc(NC(=O)[C@H]2CCCN(S(=O)(=O)c3ccccc3S(C)(=O)=O)[C@H]2c2ccc(NC3CCCC3)cc2)cc1C(F)(F)F [Compound 29, (2R,3S)-2-(4-(cyclopentylamino)phenyl)-N-(4-methyl-3-(trifluoromethyl)phenyl)-1-((2-(methylsulfonyl)phenyl)sulfonyl)piperidine-3-carboxamide]
- IC50 (C5aR): 2000 to 10000 nM
- IC50 [1]: 2000 to 5000 nM

SMILES: Cc1ccc(NC(=O)[C@H]2CCCN(S(=O)(=O)c3ccccc3C#N)[C@H]2c2ccc(NC3CCCC3)cc2)cc1C(F)(F)F [Compound 30, (2R,3S)-1-((2-cyanophenyl)sulfonyl)-2-(4-(cyclopentylamino)phenyl)-N-(4-methyl-3-(trifluoromethyl)phenyl)piperidine-3-carboxamide]
- IC50 (C5aR): 2000 to 10000 nM
- IC50 [1]: 2000 to 5000 nM

SMILES: Cc1ccc(NC(=O)[C@H]2CCCN(S(=O)(=O)c3ccc4ccccc4c3)[C@H]2c2ccc(NC3CCCC3)cc2)cc1C(F)(F)F [Compound 32, (2R,3S)-2-(4-(cyclopentylamino)phenyl)-N-(4-methyl-3-(trifluoromethyl)phenyl)-1-(naphthalen-2-ylsulfonyl)piperidine-3-carboxamide]
- IC50 (C5aR): 2000 to 10000 nM
- IC50 [1]: 2000 to 5000 nM

SMILES: Cc1ccc(NC(=O)[C@H]2CCCN(S(=O)(=O)c3cccc4ccccc34)[C@H]2c2ccc(NC3CCCC3)cc2)cc1C(F)(F)F [Compound 33, (2R,3S)-2-(4-(cyclopentylamino)phenyl)-N-(4-methyl-3-(trifluoromethyl)phenyl)-1-(naphthalen-1-ylsulfonyl)piperidine-3-carboxamide]
- IC50 (C5aR): 2000 to 10000 nM
- IC50 [1]: 2000 to 5000 nM

SMILES: Cc1ccc(NC(=O)[C@H]2CCCN(S(=O)(=O)c3ccccc3)[C@H]2c2ccc(NC3CCCC3)cc2)cc1C(F)(F)F [Compound 34, (2R,3S)-2-(4-(cyclopentylamino)phenyl)-N-(4-methyl-3-(trifluoromethyl)phenyl)-1-(phenylsulfonyl)piperidine-3-carboxamide]
- IC50 (C5aR): > 10000 nM
- IC50 [1]: 2000 to 5000 nM

SMILES: Cc1ccc(NC(=O)[C@H]2CCCN(S(=O)(=O)c3cccnc3)[C@H]2c2ccc(NC3CCCC3)cc2)cc1C(F)(F)F [Compound 35, (2R,3S)-2-(4-(cyclopentylamino)phenyl)-N-(4-methyl-3-(trifluoromethyl)phenyl)-1-(pyridin-3-ylsulfonyl)piperidine-3-carboxamide]
- IC50 (C5aR): > 10000 nM
- IC50 [1]: 2000 to 5000 nM

SMILES: Cc1ccc(NC(=O)[C@H]2CCCN(S(=O)(=O)c3cccnc3Cl)[C@H]2c2ccc(NC3CCCC3)cc2)cc1C(F)(F)F [Compound 36, (2R,3S)-1-((2-chloropyridin-3-yl)sulfonyl)-2-(4-(cyclopentylamino)phenyl)-N-(4-methyl-3-(trifluoromethyl)phenyl)piperidine-3-carboxamide]
- IC50 (C5aR): 2000 to 10000 nM
- IC50 [1]: 500 to 2000 nM

SMILES: Cc1ccc(NC(=O)[C@H]2CCCN(S(=O)(=O)c3c(C)nn(C)c3C)[C@H]2c2ccc(NC3CCCC3)cc2)cc1C(F)(F)F [Compound 38, (2R,3S)-2-(4-(cyclopentylamino)phenyl)-N-(4-methyl-3-(trifluoromethyl)phenyl)-1-((1,3,5-trimethyl-1H-pyrazol-4-yl)sulfonyl)piperidine-3-carboxamide]
- IC50 (C5aR): > 10000 nM
- IC50 [1]: 2000 to 5000 nM

SMILES: Cc1ccc(NC(=O)[C@H]2CCCN(S(=O)(=O)Cc3ccccc3)[C@H]2c2ccc(NC3CCCC3)cc2)cc1C(F)(F)F [Compound 40, (2R,3S)-1-(benzylsulfonyl)-2-(4-(cyclopentylamino)phenyl)-N-(4-methyl-3-(trifluoromethyl)phenyl)piperidine-3-carboxamide]
- IC50 (C5aR): 2000 to 10000 nM
- IC50 [1]: < 50 nM

SMILES: Cc1cccc(F)c1C(=O)N1[C@@H]2CCC[C@@H]2C[C@H](C(=O)Nc2ccc3cnn(C)c3c2)[C@@H]1c1ccc(NC2CCCC2)cc1 [Compound 50, (2R,3S,4aR,7aR)-2-(4-(cyclopentylamino)phenyl)-1-(2-fluoro-6-methylbenzoyl)-N-(1-methyl-1H-indazol-6-yl)octahydro-1H-cyclopenta[b]pyridine-3-carboxamide]
- IC50 (C5aR): 500 to 2000 nM
- IC50 [1]: < 50 nM

SMILES: Cc1cccc(F)c1C(=O)N1[C@@H]2CCC[C@@H]2C[C@H](C(=O)NC2CCOCC2)[C@@H]1c1ccc(NC2CCCC2)cc1 [Compound 52, (2R,3S,4aR,7aR)-2-(4-(cyclopentylamino)phenyl)-1-(2-fluoro-6-methylbenzoyl)-N-(tetrahydro-2H-pyran-4-yl)octahydro-1H-cyclopenta[b]pyridine-3-carboxamide]
- IC50 (C5aR): 2000 to 10000 nM
- IC50 [1]: 2000 to 5000 nM

SMILES: Cc1ccc(NC(=O)[C@H]2CCCN(c3ncnc4cccnc34)[C@H]2c2ccc(NC3CCCC3)cc2)cc1C(F)(F)F [Compound 161, (2R,3S)-2-(4-(cyclopentylamino)phenyl)-N-(4-methyl-3-(trifluoromethyl)phenyl)-1-(pyrido[3,2-d]pyrimidin-4-yl)piperidine-3-carboxamide]
- IC50 (C5aR): 2000 to 10000 nM
- IC50 [1]: 50 to 500 nM

SMILES: Cc1ccc(NC(=O)[C@H]2CCCN(c3ncnc4cccnc34)[C@H]2c2ccc(N(C(=O)OCc3ccccc3)C3CCCC3)cc2)cc1C(F)(F)F [Compound 166, benzyl cyclopentyl(4-((2R,3S)-3-((4-methyl-3-(trifluoromethyl)phenyl)carbamoyl)-1-(pyrido[3,2-d]pyrimidin-4-yl)piperidin-2-yl)phenyl)carbamate]
- IC50 (C5aR): 2000 to 10000 nM
- IC50 [1]: 2000 to 5000 nM
